Measurements published in US8598154B2 (Corcept Therapeutics, Inc., priority 2010, dated 2013).

Tests used:
[1] = molecular target: T1, Human Recombinant Glucocorticoid Receptor (Homo sapiens, UniProt P04150); test: Glucocorticoid receptor binding displacement assay with 3H-dexamethasone; conditions: displacement of 2.5 nM 3H-dexamethasone; Ki from IC50 by Cheng-Prusoff; read-out: GR Binding Ki
T1 construct: This GR was a full-length steroid hormone receptor likely to be associated with heat-shock and other endogenous proteins; host or cells: baculovirus-infected insect cells
T1 sequence (P04150 1-777): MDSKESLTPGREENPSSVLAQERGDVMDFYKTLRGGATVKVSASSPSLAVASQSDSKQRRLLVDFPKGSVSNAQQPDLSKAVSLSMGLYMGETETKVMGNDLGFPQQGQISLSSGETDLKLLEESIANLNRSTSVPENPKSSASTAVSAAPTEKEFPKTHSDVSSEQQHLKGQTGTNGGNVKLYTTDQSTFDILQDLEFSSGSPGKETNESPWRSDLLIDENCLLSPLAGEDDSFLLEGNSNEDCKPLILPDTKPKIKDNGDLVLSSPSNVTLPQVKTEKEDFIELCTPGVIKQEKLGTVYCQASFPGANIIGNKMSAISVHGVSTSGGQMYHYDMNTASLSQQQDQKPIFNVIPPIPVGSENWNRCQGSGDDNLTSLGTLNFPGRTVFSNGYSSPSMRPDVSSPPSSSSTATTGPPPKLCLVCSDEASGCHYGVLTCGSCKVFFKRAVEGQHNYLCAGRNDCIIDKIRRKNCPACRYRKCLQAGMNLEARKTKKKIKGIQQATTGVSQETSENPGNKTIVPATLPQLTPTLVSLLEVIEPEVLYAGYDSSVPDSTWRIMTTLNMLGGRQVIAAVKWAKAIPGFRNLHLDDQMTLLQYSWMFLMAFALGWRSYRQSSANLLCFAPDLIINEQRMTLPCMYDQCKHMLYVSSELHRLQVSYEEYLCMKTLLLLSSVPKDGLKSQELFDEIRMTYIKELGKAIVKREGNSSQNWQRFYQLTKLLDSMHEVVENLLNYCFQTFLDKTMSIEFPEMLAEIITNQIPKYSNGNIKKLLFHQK

[2] = molecular target: T2, glucocorticoid receptors (GR) in SW1353/MMTV-5 cells (Homo sapiens, UniProt P04150); test: GR functional assay using SW1353/MMTV-5 cells (MMTV-luciferase reporter); type: cell-based
T2 construct: contains endogenous glucocorticoid receptors; endogenous in cells; host or cells: SW1353/MMTV-5 (human chondrosarcoma, stably transfected with the pMAMneo-Luc reporter only)
T2 sequence (P04150 1-777): T1 sequence (P04150 1-777)
Summary of the method: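 Human chondrosarcoma line stably carrying firefly luciferase under an MMTV LTR glucocorticoid-responsive element, with endogenous GR. Cells were plated in 96-well plates and held 24 hrs in geneticin-free medium without CO2.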

Row | SMILES | Ki [1] [nM] | Ki [2] [nM]
1 | Cc1cc(COC(=O)[C@]23Cc4cnn(-c5ccc(F)cc5)c4C=C2CCN(S(=O)(=O)c2ccc(N4CCOCC4)nc2)C3)no1 [Example 57, (R)-1-(4-Fluorophenyl)-6-(6-morpholin-4-yl-pyridine-3-sulfonyl]-1,4,5,6,7,8-hexahydro-1,2,6-triaza-cyclopenta[b]naphthalene-4a-carboxylic acid 5-methylisoxazol-3-ylmethyl ester] | 0.5 to 1 | 10 to 50
2 | O=C(OCC1CC(O)C1)[C@]12Cc3cnn(-c4ccc(F)cc4)c3C=C1CCN(S(=O)(=O)c1ccc(N3CC[C@@H](F)C3)nc1)C2 (stereo partly drawn) [Example 61, (R)-1-(4-Fluorophenyl)-6-[6-((R)-3-fluoropyrrolidin-1-yl)-pyridine-3-sulfonyl]-1,4,5,6,7,8-hexahydro-1,2,6-triaza-cyclopenta[b]naphthalene-4a-carboxylic acid 3-hydroxy cyclobutylmethyl ester] | > 1 | 10 to 50
3 | O=S(=O)(c1ccc(N2CC[C@@H](F)C2)nc1)N1CCC2=Cc3c(cnn3-c3ccc(F)cc3)C[C@]2(COCC2CC2)C1 [Example 26, (R)-4a-Cyclopropylmethoxymethyl-1-(4-fluorophenyl)-6-(6-((R)-3-fluoro-pyrrolidin-1-yl)-pyridine-3-sulfonyl)-4,4a,5,6,7,8-hexahydro-1H-1,2,6-triaza-cyclopenta[b]naphthalene] | 0.5 to 1 | < 10
